How the values were obtained:
CFTR ΔF508 mutant = target: T1, CFTR ΔF508 mutant (Homo sapiens, UniProt P13569, DEL508-508); experiment: YFP-halide influx assay for the CFTR-ΔF508 mutation (CFBE41o- cells); assay type: cell-based; settings: forskolin 10.67 μM; for EC50: from (1−F/F0) vs concentration plot
T1 construct: expressed in transfected cells; host or cells: CFBE41o- cells, adenoviral transduction
In short: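 EC50 derived from plotting 1−F/F0 (fluorescence 36 s after iodide injection over pre-injection value) against compound concentration. Cells: CFBE41o- transduced with ΔF508-CFTR and YFP quench reporter, corrected 24 h at 27° C or by a CFTR modulator at 37° C.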

CFTR-R117H = target: T2, CFTR-R117H (Homo sapiens, UniProt P13569, R117H); experiment: YFP-halide influx assay for the CFTR-R117H; assay type: cell-based
T2 construct: expressed in transfected cells
T2 sequence (P13569 whole entry R117H): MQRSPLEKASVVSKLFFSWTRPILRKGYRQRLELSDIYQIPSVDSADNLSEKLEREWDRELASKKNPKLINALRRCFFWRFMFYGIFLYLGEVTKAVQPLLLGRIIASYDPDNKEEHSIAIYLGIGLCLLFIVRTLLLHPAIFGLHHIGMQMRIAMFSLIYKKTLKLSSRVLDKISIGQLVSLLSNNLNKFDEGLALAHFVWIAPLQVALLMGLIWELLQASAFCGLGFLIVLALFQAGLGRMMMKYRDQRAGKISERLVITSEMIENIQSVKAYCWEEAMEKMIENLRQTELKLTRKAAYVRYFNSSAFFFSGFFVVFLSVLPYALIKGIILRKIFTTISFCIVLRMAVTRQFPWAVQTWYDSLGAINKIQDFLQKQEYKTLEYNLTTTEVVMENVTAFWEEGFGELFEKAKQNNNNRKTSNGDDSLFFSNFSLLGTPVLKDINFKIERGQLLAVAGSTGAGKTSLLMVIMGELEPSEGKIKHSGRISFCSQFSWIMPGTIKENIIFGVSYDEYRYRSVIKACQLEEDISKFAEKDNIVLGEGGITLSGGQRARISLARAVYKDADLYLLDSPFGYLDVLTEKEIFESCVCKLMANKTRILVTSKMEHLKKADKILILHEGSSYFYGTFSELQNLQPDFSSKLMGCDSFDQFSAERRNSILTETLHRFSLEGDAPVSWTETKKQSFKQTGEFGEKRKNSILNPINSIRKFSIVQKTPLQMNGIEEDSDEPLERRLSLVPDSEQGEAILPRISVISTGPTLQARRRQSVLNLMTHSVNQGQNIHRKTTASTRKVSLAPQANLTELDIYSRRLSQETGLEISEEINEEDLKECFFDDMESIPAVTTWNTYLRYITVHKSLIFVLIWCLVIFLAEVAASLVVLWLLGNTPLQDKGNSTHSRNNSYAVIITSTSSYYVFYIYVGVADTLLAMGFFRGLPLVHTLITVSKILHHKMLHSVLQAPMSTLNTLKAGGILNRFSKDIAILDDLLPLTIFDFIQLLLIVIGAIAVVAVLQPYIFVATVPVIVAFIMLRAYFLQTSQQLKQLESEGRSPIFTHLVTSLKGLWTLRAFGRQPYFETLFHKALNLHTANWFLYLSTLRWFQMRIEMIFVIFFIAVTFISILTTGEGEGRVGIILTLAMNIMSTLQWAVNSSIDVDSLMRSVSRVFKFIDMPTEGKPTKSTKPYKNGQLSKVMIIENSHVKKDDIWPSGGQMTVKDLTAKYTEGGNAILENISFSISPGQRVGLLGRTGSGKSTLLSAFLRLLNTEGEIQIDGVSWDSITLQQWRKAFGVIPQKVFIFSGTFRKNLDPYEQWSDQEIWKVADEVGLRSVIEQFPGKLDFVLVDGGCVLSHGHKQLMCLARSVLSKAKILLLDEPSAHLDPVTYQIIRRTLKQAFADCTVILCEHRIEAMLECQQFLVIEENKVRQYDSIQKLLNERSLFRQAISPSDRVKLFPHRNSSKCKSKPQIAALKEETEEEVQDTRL
In short: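 HEK293 cells reverse-transfected with a CFTR mutant and YFP H148Q/I152L/F47L halide sensor, expressed 24 h at 37° C. Fluorescence quenching followed for 7 s after I⁻ injection; activity expressed as 1−F/F0, with EC50 fitted from 1−F/F0 versus compound concentration.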

T1 sequence (P13569 with tags, fused parts or gaps DEL508-508): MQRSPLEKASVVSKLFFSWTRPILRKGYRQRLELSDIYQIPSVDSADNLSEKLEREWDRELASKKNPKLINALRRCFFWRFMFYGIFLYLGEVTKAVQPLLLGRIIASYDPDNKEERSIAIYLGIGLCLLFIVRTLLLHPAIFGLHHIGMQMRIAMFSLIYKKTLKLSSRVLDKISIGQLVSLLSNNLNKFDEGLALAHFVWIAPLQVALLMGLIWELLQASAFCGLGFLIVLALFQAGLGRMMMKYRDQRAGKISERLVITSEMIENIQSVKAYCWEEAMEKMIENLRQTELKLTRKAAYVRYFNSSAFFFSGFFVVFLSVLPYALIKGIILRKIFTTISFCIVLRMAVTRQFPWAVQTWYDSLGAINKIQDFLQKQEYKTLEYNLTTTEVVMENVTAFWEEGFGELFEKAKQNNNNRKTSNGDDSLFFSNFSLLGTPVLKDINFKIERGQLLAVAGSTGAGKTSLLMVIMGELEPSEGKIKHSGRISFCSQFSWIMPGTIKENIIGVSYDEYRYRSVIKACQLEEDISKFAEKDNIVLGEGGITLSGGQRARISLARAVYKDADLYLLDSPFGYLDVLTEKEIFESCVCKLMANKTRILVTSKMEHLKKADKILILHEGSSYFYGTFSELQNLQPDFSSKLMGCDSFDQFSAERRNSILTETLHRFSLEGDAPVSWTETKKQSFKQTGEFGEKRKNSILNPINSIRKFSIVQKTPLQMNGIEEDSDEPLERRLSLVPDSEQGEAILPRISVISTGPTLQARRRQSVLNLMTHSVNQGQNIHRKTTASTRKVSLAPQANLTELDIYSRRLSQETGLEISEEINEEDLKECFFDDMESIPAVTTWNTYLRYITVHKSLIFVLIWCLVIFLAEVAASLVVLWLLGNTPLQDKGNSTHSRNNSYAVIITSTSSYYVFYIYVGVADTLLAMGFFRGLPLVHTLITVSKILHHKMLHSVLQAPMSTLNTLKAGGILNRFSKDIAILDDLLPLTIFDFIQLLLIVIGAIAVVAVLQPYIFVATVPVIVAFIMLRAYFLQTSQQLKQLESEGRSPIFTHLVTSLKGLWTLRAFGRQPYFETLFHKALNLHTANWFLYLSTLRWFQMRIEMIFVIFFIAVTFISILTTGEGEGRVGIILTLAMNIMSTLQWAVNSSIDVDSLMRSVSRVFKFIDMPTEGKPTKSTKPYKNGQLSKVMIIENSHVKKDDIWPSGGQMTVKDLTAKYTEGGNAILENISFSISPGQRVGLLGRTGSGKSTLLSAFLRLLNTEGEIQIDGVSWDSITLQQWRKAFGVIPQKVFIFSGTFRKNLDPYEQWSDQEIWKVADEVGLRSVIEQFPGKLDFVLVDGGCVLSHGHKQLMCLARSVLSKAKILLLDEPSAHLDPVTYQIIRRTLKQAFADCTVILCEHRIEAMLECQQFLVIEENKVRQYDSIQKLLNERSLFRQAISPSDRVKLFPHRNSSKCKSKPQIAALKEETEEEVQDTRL

% Activation (CFTR ΔF508 mutant) [%] | EC50 (CFTR ΔF508 mutant) [nM] | % Activation (CFTR-R117H) [%] | EC50 (CFTR-R117H) [nM] | Compound
104.5 | 4.3 | 76.0 | 231 | CC(O)(CNC(=O)c1ncc(S(=O)(=O)c2ccc(OC(F)(F)F)cc2)cc1N)C(F)(F)F (centres unmarked) [Compound 2, 3-amino-N-(3,3,3-trifluoro-2-hydroxy-2-methylpropyl)-5-{[4-(trifluoromethoxy)phenyl]sulfonyl}pyridine-2-carboxamide]
108.1 | 23.7 | 89.7 | 943 | Nc1cc(S(=O)(=O)c2ccc(OC(F)(F)F)cc2)cnc1C(=O)NCCO [Compound 14, 3-amino-N-(2-hydroxyethyl)-5-{[4-(trifluoromethoxy)phenyl]sulfonyl}pyridine-2-carboxamide]
96.1 | 14.5 | 91.3 | 460 | Nc1cc(S(=O)(=O)c2ccc(OC(F)(F)F)cc2)cnc1C(=O)N1CC(O)C1 [Compound 32, (3-amino-5-{[4-(trifluoromethoxy)phenyl]sulfonyl}pyridin-2-yl)(3-hydroxyazetidin-1-yl)methanone]
104.0 | 0.5 | 113.2 | 21.8 | Nc1cc(S(=O)(=O)c2ccccc2OC(F)(F)F)cnc1C(=O)NC[C@@H](O)C(F)(F)F [Compound 81, 3-amino-N-[(2R)-3,3,3-trifluoro-2-hydroxypropyl]-5-{[2-(trifluoromethoxy)phenyl]sulfonyl}pyridine-2-carboxamide]
105.3 | 2.2 | – | – | Nc1cc(S(=O)(=O)c2ccc(OC(F)(F)F)cc2)cnc1C(=O)NC[C@H](O)C(F)(F)F [Compound 26, 3-amino-N-[(2S)-3,3,3-trifluoro-2-hydroxypropyl]-5-{[4-(trifluoromethoxy)phenyl]sulfonyl}pyridine-2-carboxamide]
97.9 | 31.4 | 98.5 | 598 | CC(C)(O)CNC(=O)c1ncc(S(=O)(=O)c2ccc(OC(F)(F)F)cc2)cc1N [Compound 1, 3-amino-N-(2-hydroxy-2-methylpropyl)-5-{[4-(trifluoromethoxy)phenyl]sulfonyl}pyridine-2-carboxamide]
105.5 | 22.9 | 86.71 | 291 | Nc1cc(S(=O)(=O)c2ccc(OC(F)(F)F)cc2)cnc1C(=O)N1CC(F)(F)C1 [Compound 40, (3-amino-5-{[4-(trifluoromethoxy)phenyl]sulfonyl}pyridin-2-yl)(3,3-difluoroazetidin-1-yl)methanone]
108.3 | 8.1 | 91.3 | 318 | Nc1cc(S(=O)(=O)c2ccc(F)cc2)cnc1C(=O)NC[C@H](O)C(F)(F)F [Compound 25, 3-amino-5-[(4-fluorophenyl)sulfonyl]-N-[(2S)-3,3,3-trifluoro-2-hydroxypropyl]pyridine-2-carboxamide]
109.0 | 14.9 | 93.3 | 289 | C[C@H](O)CNC(=O)c1ncc(S(=O)(=O)c2ccc(OC(F)(F)F)cc2)cc1N [Compound 21, 3-amino-N-[(2S)-2-hydroxypropyl]-5-{[4-(trifluoromethoxy)phenyl]sulfonyl}pyridine-2-carboxamide]
106.4 | 2.3 | – | – | Nc1cc(S(=O)(=O)c2ccc(OC(F)(F)F)cc2)cnc1C(=O)NC[C@@H](O)C(F)(F)F [Compound 37, 3-amino-N-[(2R)-3,3,3-trifluoro-2-hydroxypropyl]-5-{[4-(trifluoromethoxy)phenyl]sulfonyl}pyridine-2-carboxamide]
111.6 | 16.9 | 98.8 | 540 | COC[C@H](O)CNC(=O)c1ncc(S(=O)(=O)c2ccc(C(F)(F)F)cc2)cc1N [Compound 70, 3-amino-N-[(2R)-2-hydroxy-3-methoxypropyl]-5-{[4-(trifluoromethyl)phenyl]sulfonyl}pyridine-2-carboxamide]
106.2 | 18.6 | 100.0 | 866 | Nc1cc(S(=O)(=O)c2ccc(OC(F)(F)F)cc2)cnc1C(=O)NCC(O)COCC1CC1 (centres unmarked) [Compound 31, 3-amino-N-[3-(cyclopropylmethoxy)-2-hydroxypropyl]-5-{[4-(trifluoromethoxy)phenyl]sulfonyl}pyridine-2-carboxamide]
111.0 | 8.5 | 100.8 | 148 | Nc1cc(S(=O)(=O)c2ccc(F)cc2)cnc1C(=O)NC[C@@H](O)C(F)(F)F [Compound 36, 3-amino-5-[(4-fluorophenyl)sulfonyl]-N-[(2R)-3,3,3-trifluoro-2-hydroxypropyl]pyridine-2-carboxamide]
114.0 | 3.4 | 95.7 | 63.9 | Nc1cc(S(=O)(=O)c2ccc(OC(F)(F)F)cc2)cnc1C(=O)NCC(O)C(F)(F)F (centres unmarked) [Compound 6, 3-amino-N-(3,3,3-trifluoro-2-hydroxypropyl)-5-{[4-(trifluoromethoxy)phenyl]sulfonyl}pyridine-2-carboxamide]
96.6 | 12.9 | 97.3 | 505 | C[C@H](O)CNC(=O)c1ncc(S(=O)(=O)c2ccc(C(F)(F)F)cc2)cc1N [Compound 100, 3-amino-N-[(2S)-2-hydroxypropyl]-5-{[4-(trifluoromethyl)phenyl]sulfonyl}pyridine-2-carboxamide]

Reference: patent US10047051B2, “Substituted pyridines and method of use” (AbbVie S.á{acute over (.)}r.l., priority 2015, dated 2018)
